The record followed here is patent publication US20020197689A1, “Insecticidal peptides and methods for use of same” (priority 2000, published 2002).

Data set [1] relates to Spodoptera litura early third-instar larvae. The data set can be described thus: Microinjection bioassay of insecticidal activity in Spodoptera litura third-instar larvae. It counts as in vivo. As to conditions: for LD50: S. litura larvae, 50% mortality at 24 hours post-injection; for insecticidal activity (in words): S. litura third instar larvae. On the procedure: Due to the small amounts of material involved, bioassays are realized on a microscale, using a microinjection technique as described below. Drosophila melanogaster was used first as an insect model since it is amenable to injection of volumes of 50 nl volumes or less, and is very sensitive to spider toxins. In order to confirm activity against an economically important crop pest, Spodoptera litura early third-instar larvae were also used. S. litura is a highly polyphagous species, and is considered an international pest on cotton, tobacco, tomato, cabbage, cauliflower, peanuts, beans and other plants. However, S. litura is more resistant to toxins than D. melanogaster, and it requires injection of 10 to 100-fold higher doses. Application of the microinjection technique to S. litura larvae enabled its use as a test insect while lowering the amounts of sample used in the bioassays. In particular, early 3rd instar larvae (3 to 5 mg) can be injected successfully with volumes up to 800 nl of toxin composition. Lethal and paralytic activity of may be evaluated using D. melanogaster adult flies (˜0.7 mg/fly) and S. litura early third-instar larvae (5-8 mg/larva). See Escoubas, P., Pahna, H. F., Nakajima, T. (1995), “A Microinjection technique using Drosophila melanogaster for bioassay-guided isolation of neurotoxins in arthropod venoms”, Toxicon, 33(12), 1549-1555.
To perform the bioassay of SV toxin peptides, SV toxin peptides are injected into the dorsolateral area of Drosophila melanogaster adult flies or into the pronotum of 3rd instar Spodoptera litura larvae using a glass micropipette mounted on an automatic microinjector (A203XVY Nanoliter injector, WPI Precision Instruments, Sarasota, Fla., USA). Flies and larvae are examined five seconds after injection for evidence of involuntary contraction of body segments.

Data set [2] deals with mice. As to the kind of experiment: Intracerebroventricular injection in mice. Format: in vivo, mice (C57B16). The conditions noted are these: ICV injection, 2 micrograms per mouse. How it is done:
Intracerebroventricular injections (0.1 111 crude venom-equivalent in 5 μl of 20 mg/ml BSA and 9 mg/ml NaCl) of each toxin were also performed on 20 g male mice (C57B16).

Entries after “also recorded” stand apart in the source; their conditions may differ. Where no end group is shown, it is not given here.

Consider “PaspI (GCLGEGEKCADWSGPSCCDGFYCSCRSMPYCRCRNNS-NH2; disulfide (positions not given here); also: four disulfide bridges, pairing not given here)”, for which the LD50 result in data set [1] (injection) is recorded as “not significantly different from the LD50 measured for toxin AaIT”; in data set [1] (injection, listed as PaspI-NH2) it was 9.7+4.1 μg/g. Besides, the “insecticidal activity (in words)” value in data set [1] (injection) is “most potent toxin towards S. litura; also recorded: greatest degree of insecticidal activity”.
With “PaspII (ACVGDGQRCASWSGPYCCDGYYCSCRSMPYCRCRNNS; disulfide (positions not given here); also: four disulfide bridges, pairing not given here)”, in data set [2], the “toxic effect on mice” value is reported as “did have a toxic effect”. Moreover, the “insecticidal activity (in words)” value in data set [1] (injection) is “insecticidal activity”.
On to “PaspIII (ADCLNEGDWCADWSGPSCCGEMWCSCPGFGKCRCKK; disulfide (positions not given here); also: four disulfide bridges, pairing not given here)”, for which the “insecticidal activity (in words)” value in data set [1] (injection) is given as “insecticidal activity”.
Still for that read-out and setting: the same measure for “PaspIV (ACATKNQRCASWAGPYCCDGFYCSCRSYPGCMCRPNS; disulfide (positions not given here); also: four disulfide bridges, pairing not given here)”: “insecticidal activity; also recorded: putatively least potent”.
As for “XacI (ECIGGGGGCSVFSGPSCCGGTCKCKFVLIFPKGCHCT)”, in data set [1] (isolated peptide, injection, assay procedure of Example 3), the paralysis of larvae entry was “instantaneous paralysis”. Moreover, in data set [1] (possibly low injection dose, below the LD50), the “time to some signs of recovery of treated larvae post-injection” value lay in the range of 8 to 12 h.
